Reference: US11528908B2, “Acaricide and application thereof” (priority 2018, dated 2022)

Assays:
[1] = system: adult citrus red mites (Panonychus citri Mcgregor); test: Glass slide method, mortality of adult mites (Table 7); format: in vivo
Description: By using the glass slide method, the effects of the 1500-fold diluted solution and the 3000-fold diluted solution of the acaricide prepared in embodiment 3, the 1500-fold diluted solution of the ethoxy-modified trisiloxane, and the 1500-fold diluted solution of the solid sodium dioctyl sulfosuccinate prepared in embodiment 1 on the adult citrus red mites (Panonychus citri Mcgregor) were tested. Each treatment group had 50 citrus red mites, and the measurement was repeated 4 times, with water as a control.

[2] = system: mites; test: Acaricidal effect of ethoxy-modified trisiloxane alone (statement in summary); conditions: content 0.667 g/L to 1.0 g/L

Row | Compound | Mortality after 10 minutes ([1]; in vivo) [cC %] | Mortality after 72 hours ([1]; in vivo) [cC %] | Mortality after 10 minutes ([1]; 1500× dilution, 10 minutes after spraying) [dD %] | Mortality after 72 hours ([1]; 1500× dilution, 72 hours after spraying) [dD %] | damage to plants [2] | acaricidal rate for 72 hours ([2]; high concentration)
1 | CCCCCCCCOC(=O)CC(C(=O)OCCCCCCCC)S(=O)(=O)O.[Na] (stereo not drawn) [sodium dioctyl sulfosuccinate] | 20.35 | 62.45 | – | – | – | –
2 | ethoxy-modified trisiloxane | – | – | 15.42 | 28.84 | serious pesticide damage | about 30%
